Data: US5519057A, “Ibuprofen-containing medicament” (priority 1986, dated 1996)

Legend:
[1] = system: afferent nerves of the feet of female Rhesus monkeys; assay: Analgesia test: threshold voltage for stimulus response on electrical stimulation of the feet of female Rhesus monkeys; assay type: in vivo, Rhesus monkeys (macaca mulatta); conditions: for Median percentage change in the threshold voltage: ibuprofen forms 50 mg/kg, acetylsalicylic acid 100 mg/kg; for change in the threshold voltage (in words) / increase of the threshold voltage / time to achieve the increase of threshold voltage / analgetic effect (in words): 50 mg/kg ibuprofen form
Protocol: In this test the afferent nerves of the feet of female Rhesus monkeys were electrically stimulated. For the test four adult female Rhesus monkeys (macaca mulatta) were used.
The monkeys were trained in such a way that they sat in chairs wearing an aluminium foil shoe during the test.
On the days when the test was carried out the monkeys were sat in these stools. One foot of each monkey was smeared with electrode gel and the aluminium shoe was fitted over it.
A Grass-stimulator (S 88) was connected to the monkeys via a multiple-way switch (the positive lead was connected to the aluminium shoe, the negative lead to the chair). An electrical stimulation, each time of 2 seconds duration with a frequency of 60 Hz was applied (the magnitude of stimulation was altered by adjusting the voltage supplied to the stimulator; the corresponding current was measured by means of an ammeter connected in series).
The stimulus required to achieve a stimulus threshold was determined. For this purpose the voltage was raised stepwise. The threshold voltage was taken as the lowest voltage at which bending of the toes or twisting of the foot occurred.
Before application of the medicament the animals were allowed to acclimatize for at least one hour. During this period the threshold voltage was determined at 10 minute intervals until steady readings were obtained.
Following the acclimatization period the carrier material or the active ingredient were orally administered. The threshold voltage required to effect a stimulus response in the foot of each monkey was determined at 30 minute intervals for 3 hours and then after 4 and 5 hours after administration of the active ingredient.
The observer and the stimulation apparatus were concealed behind a one-way mirror.
Between the individual tests there was an interval of at least one week.
The active ingredients 1 to 4 were prepared for oral administration by suspending them in 1.0% w/v Tragacanth. The medicaments were prepared directly before use and administered in a dose of 4 ml/kg.

[2] = system: humans; conditions: cited from earlier work
[3] = system: prostaglandin synthesis; conditions: animals with inflammation; cited from earlier work
[4] = metabolites excreted in the urine; cited from earlier work
[5] = human, oral
[6] = system: humans; assay: Analgetic activity in humans; assay type: in vivo; conditions: no data given
[7] = 0,5 h after oral administration
[8] = 1,0 h after oral administration, *P < 0,05 vs carrier (Mann-Whitney U) over (+)-S-Ibuprofen and acetylsalicylic acid
[9] = 1,5 h after oral administration, *P < 0,05 vs carrier (Mann-Whitney U) over (+)-S-Ibuprofen
[10] = 2,0 h after oral administration
[11] = 2,5 h after oral administration
[12] = 3,0 h after oral administration
[13] = 4,0 h after oral administration
[14] = 5,0 h after oral administration
[15] = oral, 100 mg/kg acetylsalicylic acid

Structure (SMILES) | Median percentage change in the threshold voltage [1, 7] | Median percentage change in the threshold voltage [1, 8] | Median percentage change in the threshold voltage [1, 9] | Median percentage change in the threshold voltage [1, 10] | Median percentage change in the threshold voltage [1, 11] | Median percentage change in the threshold voltage [1, 12] | Median percentage change in the threshold voltage [1, 13] | Median percentage change in the threshold voltage [1, 14] | change in the threshold voltage (in words) ([1]; oral) | increase of the threshold voltage ([1]; oral) | time to achieve the increase of threshold voltage ([1]; oral) [min] | analgetic effect (in words) ([1]; oral) | also measured
CC(C)Cc1ccc(C(C)C(=O)O)cc1 (racemic) [(±)-ibuprofen, 2-(4-Isobutylphenyl)-propionic acid] | +6,4% | +8,4% | +15,7% | +15,7% | +8,5% | +18,1% | +9,7% | +17,0% | the level remained during the rest of the test period | approximately 15% | ≤ 90 | – | analgetic effect (in words) ([1]; oral, listed as ibuprofen racemate, 50 mg/kg): analgetic activity was assumed; analgetic effect (in words) ([1]; oral, listed as racemate, 50 mg/kg): weak but long-lasting analgetic effect; difference between the median change between ibuprofen racemate and carrier ([1]; oral, 50 mg/kg, every time after 90 minutes with the exception of 150 minutes): more than 20%; known period of action ([2]; human): ca. 6 hours; side effects ([2]; in vivo): usual unwanted side effects of NSAR; therapeutic effect in humans ([2]; therapy of humans): reduces pain, swelling and fever caused by inflammation; inhibition of prostaglandin synthesis [3]: effective in inhibiting prostaglandin synthesis
CC(C)Cc1ccc([C@@H](C)C(=O)O)cc1 [(R)-(-)-ibuprofen] | -5,7% | +4,0% | +4,5% | +0,5% | -4,7% | -7,0% | -2,3% | -3,4% | no significant change in the threshold voltage | – | – | inactive | conversion to the active (S)-(+)-enantiomer in vivo [4]: converted to the active (S)-(+)-enantiomer in vivo; late plasma levels as % of the maximum level ([5]; after the first 4 to 6 hours): less than 10%; plasma levels relative to those after administration of the (S)-(+)-form ([5]; only after the first 4 to 6 hours): equally high or higher levels
CC(C)Cc1ccc([C@H](C)C(=O)O)cc1 [(S)-(+)-ibuprofen] | +9,5% | +33,5% | +51,2% | +53,9% | +45,5% | +42,3% | +33,7% | +38,2% | the threshold voltage remained elevated during the rest of the test period | ~50% | 90 | notable analgesic effect which was maintained for several hours | amount of (S)-(+)-ibuprofen required relative to racemic ibuprofen to give a given analgetic activity ([1]; analgesia tests on monkeys): less than half as much; reduced dose requirement versus racemate shown in humans [6]: could also be shown in humans
CC(=O)Oc1ccccc1C(=O)O [Acetylsalicylic acid] | +35,8% | +56,6% | +41,4% | +80,4% | +74,6% | +72,8% | +66,1% | +59,8% | – | – | – | – | increase of the threshold voltage required for a stimulus response [1, 15]: ~80%; time to achieve the level of analgesia [1, 15]: ≤ 2 h; threshold voltage increase remaining throughout the duration of the test ([1]; oral, 100 mg/kg acetylsalicylic acid, after level achieved, up to 5 h): above 60%
